Results as given in article PMC7912279, “Preclinical Evaluation of ^99mTc-Labeled GRPR Antagonists maSSS/SES-PEG2-RM26 for Imaging of Prostate Cancer” (Pharmaceutics, 2021).

How the values were obtained:
[1] = Octanol-water distribution coefficient (logD); type: physicochemical; conditions: determined as previously described [35]
Protocol: To test the stability, the radiolabeled peptides were incubated with 300× molar excess of cysteine or with PBS at room temperature for 1 h. The octanol-water distribution coefficient (logD) was determined as previously described.

[2] = test system: PC-3 xenografts; assay: Biodistribution in tumor bearing mice; type: in vivo; conditions: BALB/c nu/nu mice bearing PC-3 xenografts, 3 h pi
Protocol: Animals: All in vivo experiments were carried out on BALB/c nu/nu or NMRI mice provided by Scanbur A/S (Sollentuna, Sweden). All animal studies were approved by the Ethics Committee for Animal Research in Uppsala (Sweden), following the national legislation on the protection of laboratory animals (project identification code of approval 5/16, 26 February 2016). Prostate cancer xenografts expressing GRPR were established in BALB/c nu/nu mice by subcutaneous injection of PC-3 cell suspension in PBS (7 × 10^6 cells in 100 µL) four weeks before the experiment. Four to seven mice per data point were used in in vivo experiments, two mice per data point were used in metabolic analysis and SPECT/CT imaging experiments.
Biodistribution in tumor bearing mice: The comparison of biodistribution between the two radiolabeled peptides was evaluated in BALB/c nu/nu mice bearing PC-3 xenografts. Each mouse was injected with 40 pmol (30 kBq, mass of injected peptide was adjusted with unlabeled peptide) of either [^99mTc]Tc-maSSS-PEG2-RM26 or [^99mTc]Tc-maSES-PEG2-RM26. The mice were euthanized 3 h pi. Sample collection and activity measurements were done as described above. The biodistribution of [^99mTc]Tc-maSSS-PEG2-RM26 was further studied at 6 h pi following the same protocol. Additionally for [^99mTc]Tc-maSSS-PEG2-RM26, one group of xenograft bearing mice was injected with 40 pmol (30 kBq, mass of injected peptide was adjusted with unlabeled peptide) of labeled peptide with 5 nmol of unlabeled peptide and euthanized 3 h pi.

[3] = 40 pmol (30 kBq), gamma counter, 4-7 mice

logD [1]: -1.0 | uptake, Blood [2, 3]: 0.15 ± 0.07 % IA/g | uptake, Bone [2, 3]: 0.04 ± 0.02 % IA/g | uptake, GI (gastrointestinal tract with content) [2, 3]: 46 ± 4 % IA | uptake, Intestine [2, 3]: 1.1 ± 0.6 % IA/g | uptake, Kidneys [2, 3]: 3 ± 2 % IA/g | uptake, Liver [2, 3]: 1.1 ± 0.3 % IA/g | uptake, Lung [2, 3]: 0.14 ± 0.07 % IA/g | uptake, Muscle [2, 3]: 0.04 ± 0.03 % IA/g | uptake, Pancreas [2, 3]: 2 ± 1 % IA/g | uptake, Spleen [2, 3]: 0.11 ± 0.02 % IA/g | uptake, Stomach [2, 3]: 0.9 ± 0.4 % IA/g | uptake, Tumor [2, 3]: 2.9 ± 0.7 % IA/g | Tumor-to-non-tumor ratio, Blood ([2]; 40 pmol): 26 ± 19 | Tumor-to-non-tumor ratio, Bone ([2]; 40 pmol): 84 ± 54 | Tumor-to-non-tumor ratio, Intestine ([2]; 40 pmol): 3 ± 2 | Tumor-to-non-tumor ratio, Kidneys ([2]; 40 pmol): 2 ± 2 | Tumor-to-non-tumor ratio, Liver ([2]; 40 pmol): 3.0 ± 0.8 | Tumor-to-non-tumor ratio, Lung ([2]; 40 pmol): 26 ± 16 | Tumor-to-non-tumor ratio, Muscle ([2]; 40 pmol): 90 ± 52 | Tumor-to-non-tumor ratio, Pancreas ([2]; 40 pmol): 1.5 ± 0.8 | Tumor-to-non-tumor ratio, Spleen ([2]; 40 pmol): 24 ± 10 | Tumor-to-non-tumor ratio, Stomach ([2]; 40 pmol): 4 ± 2
SMILES: CC(C)C[C@H](NC(=O)C[C@H](O)[C@H](CC(C)C)NC(=O)[C@H](Cc1c[nH]cn1)NC(=O)CNC(=O)[C@@H](NC(=O)[C@H](C)NC(=O)[C@H](Cc1c[nH]c2ccccc12)NC(=O)[C@H](CCC(N)=O)NC(=O)[C@@H](Cc1ccccc1)NC(=O)COCCOCCNC(=O)[C@H](CO)NC(=O)[C@H](CCC(=O)O)NC(=O)[C@H](CO)NC(=O)CS)C(C)C)C(N)=O [[^99mTc]Tc-maSES-PEG2-RM26, metal not drawn]
